Reference: the NIST ThermoML archive (doi:10.1016/j.jct.2018.07.012)

Assay: mn = molality of the nth substance listed, in mol/kg
Settings: for surface tension liquid-gas: Maximal bubble pressure; for mass density: 100 kPa, Liquid, Vibrating tube method

O [water] + CC(=O)[O-].CCCn1cc[n+](C)c1
m2 = 0
Settings	mass density [kg/m3]	surface tension liquid-gas [mN/m]
288.15 K	–	73.5
293.15 K	–	72.8
298.15 K	–	72
303.15 K	–	71.2
308.15 K	994.06	70.4
313.15 K	–	69.6
318.15 K	–	68.7

CC(=O)[O-].CCCCC[n+]1ccn(C)c1 [1-methyl-3-pentylimidazolium acetate] + O
Settings	mass density [kg/m3]	surface tension liquid-gas [mN/m]
288.15 K, m1 = 0.0113	1000.14	73.1
288.15 K, m1 = 0.0167	1000.28	73
288.15 K, m1 = 0.0278	1000.42	72.7
288.15 K, m1 = 0.0448	1000.64	72.2
288.15 K, m1 = 0.1117	1001.58	70.7
288.15 K, m1 = 0.1681	1002.3	69.3
288.15 K, m1 = 0.2233	1002.98	68
288.15 K, m1 = 0.2831	1003.85	66.7
288.15 K, m1 = 0.3358	1004.57	65.4
288.15 K, m1 = 0.3919	1005.36	64.1
288.15 K, m1 = 0.448	1006.14	62.9
288.15 K, m1 = 0.5032	1006.89	61.9
293.15 K, m1 = 0.0113	999.1	72.4
293.15 K, m1 = 0.0167	999.21	72.3
293.15 K, m1 = 0.0278	999.36	71.9
293.15 K, m1 = 0.0448	999.54	71.4
293.15 K, m1 = 0.1117	1000.47	69.9
293.15 K, m1 = 0.1681	1001.12	68.5
293.15 K, m1 = 0.2233	1001.89	67.4
293.15 K, m1 = 0.2831	1002.69	66
293.15 K, m1 = 0.3358	1003.38	64.7
293.15 K, m1 = 0.3919	1004.16	63.5
293.15 K, m1 = 0.448	1004.92	62.2
293.15 K, m1 = 0.5032	1005.68	61.2
298.15 K, m1 = 0.0113	997.82	71.6
298.15 K, m1 = 0.0167	997.9	71.4
298.15 K, m1 = 0.0278	998.08	71.1
298.15 K, m1 = 0.0448	998.25	70.7
298.15 K, m1 = 0.1117	999.05	69.3
298.15 K, m1 = 0.1681	999.71	67.9
298.15 K, m1 = 0.2233	1000.49	66.7
298.15 K, m1 = 0.2831	1001.32	65.4
298.15 K, m1 = 0.3358	1002.01	64.1
298.15 K, m1 = 0.3919	1002.76	62.9
298.15 K, m1 = 0.448	1003.5	61.7
298.15 K, m1 = 0.5032	1004.2	60.7
303.15 K, m1 = 0.0113	996.33	70.8
303.15 K, m1 = 0.0167	996.39	70.6
303.15 K, m1 = 0.0278	996.54	70.4
303.15 K, m1 = 0.0448	996.73	69.9
303.15 K, m1 = 0.1117	997.44	68.5
303.15 K, m1 = 0.1681	998.19	67
303.15 K, m1 = 0.2233	998.96	65.9
303.15 K, m1 = 0.2831	999.76	64.6
303.15 K, m1 = 0.3358	1000.44	63.3
303.15 K, m1 = 0.3919	1001.15	62.1
303.15 K, m1 = 0.448	1001.84	60.8
303.15 K, m1 = 0.5032	1002.51	59.8
308.15 K, m1 = 0.0113	994.67	69.9
308.15 K, m1 = 0.0167	994.74	69.8
308.15 K, m1 = 0.0278	994.85	69.5
308.15 K, m1 = 0.0448	995.01	69.1
308.15 K, m1 = 0.1117	995.82	67.6
308.15 K, m1 = 0.1681	996.5	66.2
308.15 K, m1 = 0.2233	997.24	65.1
308.15 K, m1 = 0.2831	998.03	63.9
308.15 K, m1 = 0.3358	998.7	62.7
308.15 K, m1 = 0.3919	999.4	61.4
308.15 K, m1 = 0.448	1000.08	60.2
308.15 K, m1 = 0.5032	1000.73	59.2
313.15 K, m1 = 0.0113	992.81	69.1
313.15 K, m1 = 0.0167	992.88	69
313.15 K, m1 = 0.0278	992.97	68.7
313.15 K, m1 = 0.0448	993.11	68.2
313.15 K, m1 = 0.1117	993.98	66.8
313.15 K, m1 = 0.1681	994.62	65.5
313.15 K, m1 = 0.2233	995.34	64.4
313.15 K, m1 = 0.2831	996.08	63.2
313.15 K, m1 = 0.3358	996.74	61.9
313.15 K, m1 = 0.3919	997.43	60.7
313.15 K, m1 = 0.448	998.1	59.5
313.15 K, m1 = 0.5032	998.74	58.6
318.15 K, m1 = 0.0113	990.79	68.3
318.15 K, m1 = 0.0167	990.87	68.2
318.15 K, m1 = 0.0278	990.95	67.9
318.15 K, m1 = 0.0448	991.1	67.5
318.15 K, m1 = 0.1117	991.99	66.1
318.15 K, m1 = 0.1681	992.61	64.8
318.15 K, m1 = 0.2233	993.28	63.6
318.15 K, m1 = 0.2831	994.03	62.3
318.15 K, m1 = 0.3358	994.67	61.1
318.15 K, m1 = 0.3919	995.33	60
318.15 K, m1 = 0.448	995.97	58.9
318.15 K, m1 = 0.5032	996.58	57.9
